Activity calls are given as the source filed them. The rule behind the calls is not given here.
How the values were obtained:
Aequorea victoria [1] = assay: Binding affinity to Aequorea victoria GFP mRNA (1-26) assessed as change in melting temperature
Aequorea victoria [2] = assay: Blockade of Aequorea victoria GFP mRNA (1-26) translation activity assessed as reduction in protein expression level measured after UV irradiation at a drug:mRNA molar ratio of 12:1 measured after UV irradiation by gel electrophoresis
Aequorea victoria [3] = assay: Binding affinity to Aequorea victoria GFP mRNA (1-26) assessed as melting temperature
Aequorea victoria [4] = assay: Blockade of Aequorea victoria GFP mRNA (1-26) translation activity assessed as reduction in protein expression level at a drug:mRNA molar ratio of 12:1 measured prior to UV irradiation by gel electrophoresis; parameters: scale not given: the % may be the effect or the level left
Aequorea victoria [5] = assay: Blockade of Aequorea victoria GFP mRNA (1-26) translation activity assessed as reduction in protein expression level at a drug:mRNA molar ratio of 2:1 measured prior to UV irradiation by gel electrophoresis; parameters: scale not given: the % may be the effect or the level left
Aequorea victoria [6] = assay: Blockade of Aequorea victoria GFP mRNA (1-26) translation activity assessed as reduction in protein expression level at a drug:mRNA molar ratio of 2:1 measured after UV irradiation by gel electrophoresis

SMILES	ΔTm (Aequorea victoria [1])	Activity (Aequorea victoria [2])	Tm (Aequorea victoria [3])	Activity (Aequorea victoria [4])	Activity (Aequorea victoria [5])	Activity (Aequorea victoria [6])
CC(OC(=O)NCCCCCCOC[C@H]1O[C@@H](n2ccc(N)nc2=O)[C@H](O)[C@@H]1OP(=O)(O)OC[C@H]1O[C@@H](n2ccc(=O)[nH]c2=O)[C@H](O)[C@@H]1OP(=O)(O)OC[C@H]1O[C@@H](n2cnc3c(N)ncnc32)[C@H](O)[C@@H]1OP(=O)(O)OC[C@H]1O[C@@H](n2cnc3c(=O)[nH]c(N)nc32)[C@H](O)[C@@H]1OP(=O)(O)OC[C@H]1O[C@@H](n2ccc(N)nc2=O)[C@H](O)[C@@H]1OP(=O)(O)OC[C@H]1O[C@@H](n2ccc(N)nc2=O)[C@H](O)[C@@H]1OP(=O)(O)OC[C@H]1O[C@@H](n2cnc3c(N)ncnc32)[C@H](O)[C@@H]1OP(=O)(O)OC[C@H]1O[C@@H](n2cnc3c(=O)[nH]c(N)nc32)[C@H](O)[C@@H]1OC[C@H]1O[C@@H](n2ccc(N)nc2=O)[C@H](O)[C@@H]1OC[C@H]1O[C@@H](n2ccc(=O)[nH]c2=O)[C@H](O)[C@@H]1O)c1cc(CN2C(=O)CC(SCCCO[C@H]3[C@@H](O)[C@H](n4ccc(=O)[nH]c4=O)O[C@@H]3COP(=O)(O)O[C@H]3[C@@H](O)[C@H](n4cnc5c(=O)[nH]c(N)nc54)O[C@@H]3COP(=O)(O)O[C@H]3[C@@H](O)[C@H](n4ccc(=O)[nH]c4=O)O[C@@H]3COP(=O)(O)O[C@H]3[C@@H](O)[C@H](n4cnc5c(=O)[nH]c(N)nc54)O[C@@H]3COP(=O)(O)O[C@H]3[C@@H](O)[C@H](n4cnc5c(=O)[nH]c(N)nc54)O[C@@H]3COP(=O)(O)O[C@H]3[C@@H](O)[C@H](n4ccc(=O)[nH]c4=O)O[C@@H]3COP(=O)(O)O[C@H]3[C@@H](O)[C@H](n4cnc5c(N)ncnc54)O[C@@H]3COP(=O)(O)O[C@H]3[C@@H](O)[C@H](n4ccc(N)nc4=O)O[C@@H]3CO)C2=O)ccc1[N+](=O)[O-] (some centres not stated)	32 °C	Active	62.2 °C	10%	–	–
CC(OC(=O)NCCCCCCOC[C@H]1O[C@@H](n2ccc(N)nc2=O)[C@H](O)[C@@H]1OP(=O)(O)OC[C@H]1O[C@@H](n2ccc(=O)[nH]c2=O)[C@H](O)[C@@H]1OP(=O)(O)OC[C@H]1O[C@@H](n2cnc3c(N)ncnc32)[C@H](O)[C@@H]1OP(=O)(O)OC[C@H]1O[C@@H](n2cnc3c(=O)[nH]c(N)nc32)[C@H](O)[C@@H]1OP(=O)(O)OC[C@H]1O[C@@H](n2ccc(N)nc2=O)[C@H](O)[C@@H]1OP(=O)(O)OC[C@H]1O[C@@H](n2ccc(N)nc2=O)[C@H](O)[C@@H]1OP(=O)(O)OC[C@H]1O[C@@H](n2cnc3c(N)ncnc32)[C@H](O)[C@@H]1OP(=O)(O)OC[C@H]1O[C@@H](n2cnc3c(=O)[nH]c(N)nc32)[C@H](O)[C@@H]1OC[C@H]1O[C@@H](n2ccc(N)nc2=O)[C@H](O)[C@@H]1OC[C@H]1O[C@@H](n2ccc(=O)[nH]c2=O)[C@H](O)[C@@H]1O)c1cc(CN2C(=O)CC(SCCCO[C@H]3[C@@H](O)[C@H](n4ccc(=O)[nH]c4=O)O[C@@H]3COP(=O)(O)O[C@H]3[C@@H](O)[C@H](n4cnc5c(=O)[nH]c(N)nc54)O[C@@H]3COP(=O)(O)O[C@H]3[C@@H](O)[C@H](n4ccc(=O)[nH]c4=O)O[C@@H]3COP(=O)(O)O[C@H]3[C@@H](O)[C@H](n4cnc5c(=O)[nH]c(N)nc54)O[C@@H]3COP(=O)(O)O[C@H]3[C@@H](O)[C@H](n4cnc5c(=O)[nH]c(N)nc54)O[C@@H]3COP(=O)(O)O[C@H]3[C@@H](O)[C@H](n4ccc(=O)[nH]c4=O)O[C@@H]3COP(=O)(O)O[C@H]3[C@@H](O)[C@H](n4cnc5c(N)ncnc54)O[C@@H]3COP(=O)(O)O[C@H]3[C@@H](O)[C@H](n4ccc(N)nc4=O)O[C@@H]3CO[C@H]3[C@@H](O)[C@H](n4ccc(N)nc4=O)O[C@@H]3CO[C@H]3[C@@H](O)[C@H](n4cnc5c(=O)[nH]c(N)nc54)O[C@@H]3CO)C2=O)ccc1[N+](=O)[O-] (some centres not stated)	20 °C	–	72.4 °C	–	100%	Active
CC(OC(=O)NCCCCCCOC[C@H]1O[C@@H](n2ccc(N)nc2=O)[C@H](O)[C@@H]1OP(=O)(O)OC[C@H]1O[C@@H](n2ccc(N)nc2=O)[C@H](O)[C@@H]1OP(=O)(O)OC[C@H]1O[C@@H](n2cnc3c(N)ncnc32)[C@H](O)[C@@H]1OP(=O)(O)OC[C@H]1O[C@@H](n2cnc3c(=O)[nH]c(N)nc32)[C@H](O)[C@@H]1OP(=O)(O)OC[C@H]1O[C@@H](n2ccc(N)nc2=O)[C@H](O)[C@@H]1OP(=O)(O)OC[C@H]1O[C@@H](n2ccc(=O)[nH]c2=O)[C@H](O)[C@@H]1OP(=O)(O)OC[C@H]1O[C@@H](n2ccc(=O)[nH]c2=O)[C@H](O)[C@@H]1OP(=O)(O)OC[C@H]1O[C@@H](n2cnc3c(=O)[nH]c(N)nc32)[C@H](O)[C@@H]1OP(=O)(O)OC[C@H]1O[C@@H](n2cnc3c(=O)[nH]c(=O)[nH]c32)[C@H](O)[C@@H]1OP(=O)(O)OC[C@H]1O[C@@H](n2cnc3c(=O)[nH]c(=O)[nH]c32)[C@H](O)[C@@H]1OP(=O)(O)OC[C@H]1O[C@@H](n2ccc(=O)[nH]c2=O)[C@H](O)[C@@H]1OP(=O)(O)OC[C@H]1O[C@@H](n2ccc(N)nc2=O)[C@H](O)[C@@H]1O)c1cc(CN2C(=O)CC(SCCCO[C@H]3[C@@H](O)[C@H](n4cnc5c(=O)[nH]c(N)nc54)O[C@@H]3COP(=O)(O)O[C@H]3[C@@H](O)[C@H](n4cnc5c(N)ncnc54)O[C@@H]3COP(=O)(O)O[C@H]3[C@@H](O)[C@H](n4ccc(=O)[nH]c4=O)O[C@@H]3COP(=O)(O)O[C@H]3[C@@H](O)[C@H](n4ccc(N)nc4=O)O[C@@H]3CO[C@@H]3[C@H](O)[C@@H](COP(=O)(O)O[C@H]4[C@@H](O)[C@H](n5cnc6c(=O)[nH]c(N)nc65)O[C@@H]4COP(=O)(O)O[C@H]4[C@@H](O)[C@H](n5ccc(=O)[nH]c5=O)O[C@@H]4COP(=O)(O)O[C@H]4[C@@H](O)[C@H](n5cnc6c(=O)[nH]c(N)nc65)O[C@@H]4COP(=O)(O)O[C@H]4[C@@H](O)[C@H](n5cnc6c(=O)[nH]c(N)nc65)O[C@@H]4COP(=O)(O)O[C@H]4[C@@H](O)[C@H](n5ccc(=O)[nH]c5=O)O[C@@H]4COP(=O)(O)O[C@H]4[C@@H](O)[C@H](n5cnc6c(N)ncnc65)O[C@@H]4COP(=O)(O)O[C@H]4[C@@H](O)[C@H](n5ccc(N)nc5=O)O[C@@H]4CO)O[C@H]3n3ccc(=O)[nH]c3=O)C2=O)ccc1[N+](=O)[O-] (some centres not stated)	24 °C	–	81.2 °C	–	100%	Active

— ChEMBL document CHEMBL1140998, “RNA bandages for photoregulating in vitro protein synthesis” (Bioorg Med Chem Lett, 2008)
